# In patent US6225478A, “Iridoid derivatives and neovascularization inhibitors containing the same as active ingredient” (Tsumura & Co., priority 1999, dated 2001):
# System: HUFEC
# Test: Cell Migration Assay (CMA) Test, inhibitory rate with control (-) correction
# Assay type: cell-based, human
# Conditions: Homo sapiens, 24 h, 125 μl of 0.32 mM sample solution in 4.0 ml medium, 80% or more = remarkable
# In short: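 Confluent HUFEC monolayers were scratch-wounded, then cultured 24 h at 37 °C, 5% CO2 in M199 (2+) medium with compound added as 125 μl of a 0.32 mM solution (3.2% DMSO) per 4 ml. Giemsa-stained cells migrating into 1 mm×1 mm blocks counted; inhibition % calculated relative to control (+) and control (−) wells.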
row,SMILES,inhibition at 320 µM (stock) [%]
1,COC(=O)C1=CO[C@@H](OC(=O)NCc2cccc(F)c2)[C@H]2[C@@H]1CC[C@@H]2C [I-232],6.5
2,COC(=O)C1=CO[C@@H](OC(=O)NCc2cccc(C(F)(F)F)c2)[C@H]2[C@@H]1CC[C@@H]2C [I-233],5.5
3,COC(=O)C1=CO[C@@H](OC(=O)NCc2ccc3c(c2)OCO3)[C@H]2[C@@H]1CC[C@@H]2C [I-234],7.3
4,COC(=O)C1=CO[C@@H](OC(=O)N2CCN(c3cccc(C(F)(F)F)c3)CC2)[C@H]2[C@@H]1CC[C@@H]2C [I-235],6.5
5,COC(=O)C1=CO[C@@H](OC(=O)NCCS)[C@H]2[C@@H]1CC[C@@H]2C [I-236],28.1
6,CCOC(=O)CCCNC(=O)O[C@@H]1OC=C(C(=O)OC)[C@H]2CC[C@H](C)[C@@H]12 [I-237],6.9
7,CONC(=O)O[C@@H]1OC=C(C(=O)OC)[C@H]2CC[C@H](C)[C@@H]12 [I-238],5.9
8,COC(=O)C1=CO[C@@H](OC(=O)N(C)C)[C@H]2[C@@H]1CC[C@@H]2C [I-239],7.8
9,COC(=O)C1=CO[C@@H](OC(=O)N(CCO)CCO)[C@H]2[C@@H]1CC[C@@H]2C [I-240],8.5
10,COC(=O)C1=CO[C@@H](OC(=O)NCC2CC2)[C@H]2[C@@H]1CC[C@@H]2C [I-241],12.6
11,COC(=O)C1=CO[C@@H](OC(=O)N2CC=C(c3ccccc3)CC2)[C@H]2[C@@H]1CC[C@@H]2C [I-242],5.1
12,CCOc1ccccc1N1CCN(C(=O)O[C@@H]2OC=C(C(=O)OC)[C@H]3CC[C@H](C)[C@@H]23)CC1 [I-243],6.7
13,COC(=O)C1=CO[C@@H](OC(=O)NCCCCl)[C@H]2[C@@H]1CC[C@@H]2C [I-244],19.5
14,COC(=O)C1=CO[C@@H](OC(=O)NCc2ccc(Br)cc2)[C@H]2[C@@H]1CC[C@@H]2C [I-245],27.3
15,COC(=O)CNC(=O)O[C@@H]1OC=C(C(=O)OC)[C@H]2CC[C@H](C)[C@@H]12 [I-246],23.4
16,COC(=O)C1=CO[C@@H](OC(=O)NC2Cc3ccccc3C2)[C@H]2[C@@H]1CC[C@@H]2C [I-247],23.4
17,COC(=O)C1=CO[C@@H](OC(=O)NCCc2ccc(O)c(OC)c2)[C@H]2[C@@H]1CC[C@@H]2C [I-248],2.2
18,COC(=O)C1=CO[C@@H](OC(=O)NC(CO)CO)[C@H]2[C@@H]1CC[C@@H]2C [I-249],44
19,COC(=O)C1=CO[C@@H](OC(=O)N2CCC2)[C@H]2[C@@H]1CC[C@@H]2C [I-250],8
20,COC(=O)C1=CO[C@@H](OC(=O)N2CCN(c3ccccc3F)CC2)[C@H]2[C@@H]1CC[C@@H]2C [I-251],8.7
21,COC(=O)C1=CO[C@@H](OC(=O)NCc2nc3ccccc3[nH]2)[C@H]2[C@@H]1CC[C@@H]2C [I-252],8.2

# System: human umbilical-vein endothelial cells (HUVEC)
# Test: Tube Formation Assay (TFA) Test, HUVEC in collagen gel
# Assay type: cell-based
# Conditions: Homo sapiens, HUVEC, Tables 75-83; 0.32 mM sample solution; method as for Compounds 1 through 60; read-out: TFA Inhibition rate (%)
# In short: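 HUVEC (7th subculture, 1×10^5 cells/ml) attached to collagen gel for 2 h at 37 °C, given sample and overlaid with collagen, then cultured 20 h at 37 °C, 5% CO2 in M-199 with 20% FCS, 30 ng/ml b-FGF and 0.1 μM PMA. Tube length measured by image analysis; % inhibition relative to positive and negative controls.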
row,SMILES,inhibition at 320 µM (stock) [%]
1,COC(=O)C1=CO[C@@H](OC(=O)NCc2cccc(F)c2)[C@H]2[C@@H]1CC[C@@H]2C [I-232],2.9
2,COC(=O)C1=CO[C@@H](OC(=O)NCc2cccc(C(F)(F)F)c2)[C@H]2[C@@H]1CC[C@@H]2C [I-233],4.1
3,COC(=O)C1=CO[C@@H](OC(=O)NCc2ccc3c(c2)OCO3)[C@H]2[C@@H]1CC[C@@H]2C [I-234],7.3
4,COC(=O)C1=CO[C@@H](OC(=O)N2CCN(c3cccc(C(F)(F)F)c3)CC2)[C@H]2[C@@H]1CC[C@@H]2C [I-235],9.3
5,COC(=O)C1=CO[C@@H](OC(=O)NCCS)[C@H]2[C@@H]1CC[C@@H]2C [I-236],10.4
6,CCOC(=O)CCCNC(=O)O[C@@H]1OC=C(C(=O)OC)[C@H]2CC[C@H](C)[C@@H]12 [I-237],7.8
7,CONC(=O)O[C@@H]1OC=C(C(=O)OC)[C@H]2CC[C@H](C)[C@@H]12 [I-238],17.8
8,COC(=O)C1=CO[C@@H](OC(=O)N(C)C)[C@H]2[C@@H]1CC[C@@H]2C [I-239],5.7
9,COC(=O)C1=CO[C@@H](OC(=O)N(CCO)CCO)[C@H]2[C@@H]1CC[C@@H]2C [I-240],7.4
10,COC(=O)C1=CO[C@@H](OC(=O)NCC2CC2)[C@H]2[C@@H]1CC[C@@H]2C [I-241],5.1
11,COC(=O)C1=CO[C@@H](OC(=O)N2CC=C(c3ccccc3)CC2)[C@H]2[C@@H]1CC[C@@H]2C [I-242],4.8
12,CCOc1ccccc1N1CCN(C(=O)O[C@@H]2OC=C(C(=O)OC)[C@H]3CC[C@H](C)[C@@H]23)CC1 [I-243],8.1
13,COC(=O)C1=CO[C@@H](OC(=O)NCCCCl)[C@H]2[C@@H]1CC[C@@H]2C [I-244],5.2
14,COC(=O)C1=CO[C@@H](OC(=O)NCc2ccc(Br)cc2)[C@H]2[C@@H]1CC[C@@H]2C [I-245],6.3
15,COC(=O)CNC(=O)O[C@@H]1OC=C(C(=O)OC)[C@H]2CC[C@H](C)[C@@H]12 [I-246],4.9
16,COC(=O)C1=CO[C@@H](OC(=O)NC2Cc3ccccc3C2)[C@H]2[C@@H]1CC[C@@H]2C [I-247],9.7
17,COC(=O)C1=CO[C@@H](OC(=O)NCCc2ccc(O)c(OC)c2)[C@H]2[C@@H]1CC[C@@H]2C [I-248],5.7
18,COC(=O)C1=CO[C@@H](OC(=O)NC(CO)CO)[C@H]2[C@@H]1CC[C@@H]2C [I-249],11.1
19,COC(=O)C1=CO[C@@H](OC(=O)N2CCC2)[C@H]2[C@@H]1CC[C@@H]2C [I-250],4.1
20,COC(=O)C1=CO[C@@H](OC(=O)N2CCN(c3ccccc3F)CC2)[C@H]2[C@@H]1CC[C@@H]2C [I-251],7.9
21,COC(=O)C1=CO[C@@H](OC(=O)NCc2nc3ccccc3[nH]2)[C@H]2[C@@H]1CC[C@@H]2C [I-252],5.4
